Measured values as given in the NIST ThermoML archive (doi:10.1016/j.jct.2012.08.020).

Test: xn = mol fraction of the nth substance listed
Settings: Fluid (supercritical or subcritical phases)

CCCCC(COC(=O)C(=O)OCC)OC(=O)C(=O)OCC (stereo not given) [1,2-hexanediol bis-(ethoxycarbonylformate)] + O=C=O
Settings	mass density [kg/m3]
313 K, x1 = 0.00125	556.08
313 K, x1 = 0.00238	584.52
313 K, x1 = 0.00345	606.4
313 K, x1 = 0.00447	624.05
313 K, x1 = 0.00552	631.74
333 K, x1 = 0.00179	389.65
333 K, x1 = 0.00331	420.8
333 K, x1 = 0.00471	443.89
333 K, x1 = 0.00608	458.89
333 K, x1 = 0.00748	466.23
353 K, x1 = 0.00251	277.12
353 K, x1 = 0.00456	305.62
353 K, x1 = 0.00632	331.22
353 K, x1 = 0.00821	339.94
353 K, x1 = 0.00988	353.15

CCCCC(COC(=O)C(=O)OC)OC(=O)C(=O)OC (stereo not given) [1,2-hexanediol bis-(methoxycarbonylformate)] + O=C=O
Settings	mass density [kg/m3]
313 K, x1 = 0.00173	436.05
313 K, x1 = 0.00309	492.75
313 K, x1 = 0.00442	517.19
313 K, x1 = 0.00567	538.22
313 K, x1 = 0.00686	556.08
333 K, x1 = 0.00241	316.53
333 K, x1 = 0.00416	366.67
333 K, x1 = 0.00576	397.42
333 K, x1 = 0.00739	413.01
333 K, x1 = 0.00874	436.26
353 K, x1 = 0.00318	239.41
353 K, x1 = 0.00558	273.18
353 K, x1 = 0.00729	314.05
353 K, x1 = 0.00921	331.22
353 K, x1 = 0.01094	348.73

CCCCC(O)CO (stereo not given) [1,2-hexanediol] + O=C=O
Settings	mass density [kg/m3]
313 K, x1 = 0.00073	677.07
313 K, x1 = 0.00136	730.15
313 K, x1 = 0.00197	756.91
313 K, x1 = 0.00256	778.16
313 K, x1 = 0.0031	802.54
333 K, x1 = 0.00091	547.92
333 K, x1 = 0.00169	589.92
333 K, x1 = 0.00241	619.81
333 K, x1 = 0.00312	638.84
333 K, x1 = 0.0038	655.62
353 K, x1 = 0.00109	457.46
353 K, x1 = 0.00196	506.95
353 K, x1 = 0.00281	530.61
353 K, x1 = 0.00363	549.26
353 K, x1 = 0.00442	563.72
